Here are results for 1 compound from ChEMBL document CHEMBL2046354, “Identification of spirocyclic piperidine-azetidine inverse agonists of the ghrelin receptor” (Bioorg Med Chem Lett, 2012).

A short description of this data set: Oral bioavailability in Sprague-Dawley rat at 30 mg/kg. As to conditions: in vivo. The format is ADME, organism-based.

What is called bioavailability is dose-corrected exposure relative to a reference, in per cent. A higher bioavailability goes with good availability.

`Cc1cn2cc(CC(=O)N3CCC4(CC3)CN(Cc3ccc(-n5nccn5)cc3Cl)C4)nc2s1` displayed a bioavailability of 43%.
